The source of these data is US20250213701A1, “MEDICAMENT FOR TREATING HUMAN TUMOR BASED ON ERF3A-TARGETING PROTEOLYSIS MECHANISM” (SUZHOU DEGEN BIO-MEDICAL CO., LTD., priority 2022, published 2025).

Common to all, as to assay type: cell-based
For test [1], the system named is AGS cells. As to the kind of experiment: Anti-proliferative toxicity of C63 in tumor cell lines (CCK8): AGS. The conditions noted are these: Homo sapiens, 72 h, 3 days, read-out: Inhibition rate. The procedure: (§1) Example 83: Detection of Anti-Proliferative Toxicity of C63 in Some Tumor Cell Lines
AGS cells (purchased from the Cell Bank of the Chinese Academy of Sciences, Cat. No. TCHu232) were subcultured in a culture medium (F12K medium+[…] dual-antibiotic solution+10% fetal bovine serum) in an incubator at […] and 37° C.
AGS cells were seeded at 2000 cells/well (90 μL) on a 96-well plate and cultured for 24 h.
(§2) 10 mM compound stock solutions were prepared in DMSO.
(§3) The compound stock solution was diluted with DMSO to give DMSO solutions 1-9 at concentrations of 0 μM, 2500 μM, 500 μM, 100 μM, 20 μM, 4 μM, 0.8 μM, 0.16 μM, and 0.032 μM.
(§4) 2 μL of each of solutions 1-9 was added to 98 μL of the medium to give mixed solutions 11-19 of the compound and the medium.
(§5) 10 μL of each of solutions 11-19 was added to the above cell seed solution to give a total volume of 100 μL (90 μL+10 μL).
(§6) The concentrations of the compound in the wells were 0 μM, 5.0 μM, 1.0 μM, 0.2 μM, 0.04 μM, 0.008 μM, 0.0016 μM, 0.00032 μM, and 0.000064 μM. All concentrations were in triplicate.
(§7) After the above-treated cells were cultured for 3 days, 10 μL of the CCK8 solution (DOJINDO, Cat. No. PF725) was added to each well. The plate was incubated in an incubator at 37° C. for 1-4 h and then detected on a microplate reader for the reading at 450 nm.

In test [2] the test system is SNU-1 cells. The experiment in a line: Anti-proliferative toxicity of C63 in tumor cell lines (CCK8): SNU-1. The settings on record: Homo sapiens, SNU1, 72 h, 3 days, read-out: Inhibition rate. The procedure: as §1
SNU-1 cells (purchased from the Cell Bank of the Chinese Academy of Sciences, Cat. No. TCHu230) were subcultured in a culture medium (RPMI-1640 medium+1% penicillin-streptomycin dual-antibiotic solution+10% fetal bovine serum) in an incubator at 5% carbon dioxide and 37° C.
SNU-1 cells were seeded at 5000 cells/well (90 μL) on a 96-well plate and cultured for 24 h.
as §2, §3, §4, §5, §6, §7

The test system of test [3] is U251 cells. The experiment in a line: Anti-proliferative toxicity of C63 in tumor cell lines (CCK8): U251. The settings on record: Homo sapiens, U-251, 72 h, 3 days, read-out: Inhibition rate. As for the experimental part: as §1
U251 cells (purchased from the Cell Bank of the Chinese Academy of Sciences, Cat. No. TCHu58) were subcultured in a culture medium (DMEM medium+1% penicillin-streptomycin dual-antibiotic solution+10% fetal bovine serum) in an incubator at 5% carbon dioxide and 37° C.
U251 cells were seeded at 2000 cells/well (90 μL) on a 96-well plate and cultured for 24 h.
as §2, §3, §4, §5, §6, §7

The target of test [4] is T1, SRD5A1 (Homo sapiens, UniProt P18405).
T1 construct: The downregulation of SRD5A1, SRD5A3, AR, ARV7, GSPT1 proteins in 22Rv1 cells by C59; endogenous in cells; host or cells: 22Rv1
The experiment in a line: Western blot assay in 22Rv1 cells: SRD5A1. The conditions noted are these: different concentrations at 24 h, and 3 nM at different time points (FIGS. 7 and 8). The source says:
Example 84: Western Blot Assay of Compound C59 in 22Rv1, PC-3, and HepG2 Cells
(1) Materials: 22Rv1, PC-3, and HepG2 cell, anti-SRD5A1 antibody (ab167606), anti-SRD5A2 antibody (ab124877), anti-SRD5A3 antibody (PA5-107029), anti-androgen receptor (AR) antibody (CST, No. 5153), anti-GSPT1 antibody (Abcam, ab234433), anti-GADPH antibody (CST, No. 5174), anti-c-Myc antibody (CST, No. 8583), anti-α-tublin antibody (CST, No. 2125), anti-rabbit IgG, HRP-linked antibody (CST, No. 7074), electrophoresis device and membrane transfer device (LIUYI, BEIJING; DYCZ-24DN)
Cell seeding: 22Rv1 (Cell Bank of the Chinese Academy of Sciences, TCHu100), PC-3 (Cell Bank of the Chinese Academy of Sciences, SCSP-532) and HepG2 cells (Cell Bank of the Chinese Academy of Sciences, TCHu72) were subcultured and trypsinized to prepare 6×10^5 cells/mL suspensions, seeded on 6-well plates (3 mL/well), and cultured overnight in a cell incubator at 5% CO2 and 37° C. […]
Protein quantification: The protein was quantified using a BCA protein quantification kit. […]
Western immunoblot assay (or Western blot, WB): SDS-PAGE gel at a proper concentration was prepared according to the molecular weight of the target protein: for example, the concentration of the separation gel was 8% and the concentration of the stacking gel was 5%. The loading volume was adjusted according to the protein quantification results. […]

T1 sequence (P18405 whole entry): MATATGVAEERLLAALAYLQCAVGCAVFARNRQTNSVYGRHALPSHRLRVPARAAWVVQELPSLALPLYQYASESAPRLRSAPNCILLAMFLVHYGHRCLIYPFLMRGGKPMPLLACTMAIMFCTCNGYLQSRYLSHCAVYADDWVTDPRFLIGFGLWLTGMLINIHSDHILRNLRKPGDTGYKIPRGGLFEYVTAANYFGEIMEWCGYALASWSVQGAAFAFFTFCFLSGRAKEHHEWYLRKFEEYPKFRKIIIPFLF

Turning to `C[C@]12C=CC(=O)N[C@@H]1CC[C@@H]1[C@@H]2CC[C@]2(C)[C@@H](C(=O)Nc3cccc(N[C@@H]4CCC[C@@H](Nc5cccc6c5C(=O)N([C@H]5CCC(=O)NC5=O)C6=O)C4)c3)CC[C@@H]12` [C63, N-(3-(N—(N-(4-(2-(3S-(2,6-dioxopiperidine))-isoindole-1,3-dione))-1R,3R-cyclohexanediamine))phenyl)-3-oxo-4-aza-5α-androst-1-ene-17β-carboxamide], the values for the inhibition at 64 pM in test [1] (0.000064 μM), in test [2] (0.000064 μM) and in test [3] (0.000064 μM) were 17.5%, 10.2% and 22%, respectively. The inhibition at 0.00032 µM was 11.1% in test [1] (0.000320 μM), 28.9% in test [2] (0.000320 μM) and 21.7% in test [3] (0.000320 μM). For the same compound, the inhibition at 0.0016 µM in test [1] (0.001600 μM) was determined as 20.4%; in test [2] (0.001600 μM) it was 65.1%; in test [3] (0.001600 μM), 53.4%. Besides, the inhibition at 0.008 µM in test [1] (0.008000 μM) was found to be 44.2%; in test [2] (0.008000 μM), 75.2%; in test [3] (0.008000 μM), 67.8%. The inhibition at 0.04 µM came to 59.7% in test [1] (0.040000 μM), 82.7% in test [2] (0.040000 μM) and 69% in test [3] (0.040000 μM). Further, the inhibition at 0.2 µM in test [1] (0.200000 μM) is 74%; in test [2] (0.200000 μM) it was 82%; in test [3] (0.200000 μM) it was 71.7%. The inhibition at 1 µM amounted to 79.8% in test [1] (1.000000 μM), 80.9% in test [2] (1.000000 μM) and 72.2% in test [3] (1.000000 μM). Besides, the inhibition at 5 µM in test [1] (5.000000 μM) turned out to be 80.8%; in test [2] (5.000000 μM), 79.9%; in test [3] (5.000000 μM) it was 72.2%.
Take `C[C@]12C=CC(=O)N[C@@H]1CC[C@@H]1[C@@H]2CC[C@]2(C)[C@@H](C(=O)Nc3cccc(N[C@@H]4CCC[C@@H](Nc5cccc6c5C(=O)N(C5CCC(=O)NC5=O)C6=O)C4)c3)CC[C@@H]12` (stereo partly drawn) [C59, N-(3-(N—(N-(4-(2-(3-(2,6-dioxopiperidine))-isoindole-1,3-dione))-1R,3R-cyclohexanediamine))phenyl)-3-oxo-4-aza-5α-androst-1-ene-17β-carboxamide]: in test [4], the “downregulation of SRD5A1 protein (Western blot)” value is recorded as “downregulation”.

What is called inhibition is the share of the control response that was lost under treatment.
